Test results from patent US8987486B2, “Trans-2-decenoic acid derivative and pharmaceutical agent containing the same” (Nagoya Industrial Science Research Institute, priority 2010, dated 2015).

Assays:
[1] = system: PC12 cells; assay: Evaluation using PC12 cells; immunostaining method for MAPK phosphorylation; type: cell-based; conditions: 30 minutes
Method: PC12 cells were stimulated using the compound of the present invention and the phosphorylation of MAPK was evaluated by means of immunostaining of the cells. The specific operation procedure is as follows.
A cover glass was placed on a 24-well plate followed by coating with poly-L-lysine. PC12 cells were seeded in a cell density of 50,000 cells/well. (The amount of the medium was 400 μL) On the first day after seeding the cells, the medium was exchanged to DMEM containing 1% fetal bovine serum (FBS) and 0.06% L-glutamine.
The compound which was previously diluted with DMSO was dissolved in 100 μl of medium. After 12 to 16 hours from the medium exchange, 100 μl out of 400 μl of the medium was removed from each well and, in place of that, 100 μl of a medium containing the compound was added.
After 30 minutes from the addition, fixation was conducted using 4% paraformaldehyde (PFA) for 10 minutes. The fixed cells were washed with a Tris-buffered saline (TBS) and a TBS containing 0.3% Triton X was added thereto followed by incubating at 37° C. for 30 minutes. This was washed with a TBS and blocked with a TBS containing 3% skim milk for 30 minutes (at room temperature).
This was washed with a TBS for one time and a primary antibody (anti-phospho-p42/44 MAPK antibody; cell signalings; #9102 being diluted with TBS to an extent of 1,000-fold) was added thereto followed by subjecting to the reaction at 4° C. for one night. The primary antibody was removed and washed with a TBS for three times. After that, the secondary antibody (Alexa 488 goat anti-rabbit antibody; Invitrogen: being diluted to an extent of 1,000-fold using a TBS containing 1% Block Ace) was added thereto and the reaction was conducted at room temperature for 3 hours. The secondary antibody was removed and, after washing with a TBS, fixation was conducted with 4% PFA for 1 hour.
This was washed with a TBS, Hoechst (diluted with a TBS to an extent of 2000-fold) was added thereto and nuclear staining was conducted. This was washed and mounted.
Taking the photographic pictures and counting the positive cells were conducted as follows. An all-in-one microscope (manufactured by Keyence) was used, exposing time for pMAPK (green) was made 1/2.8 s, the place was appropriately decided in a Hoechst-stained image and the pictures were taken. Four pictures per one glass sheet were taken.
Photoshop (Adobe) was used and the cells having above a certain luminance were judged to be positive. All cells were labeled using Hoechst 33342 manufactured by Invitrogen and the rate of pMAPK-positive cells in Hoechst-positive cells was calculated. (cf. Table 7)

[2] = system: chronic mild stress-induced depressive model mice; assay: Spontaneous alternation behavior test (Y-maze test) in chronic mild stress-induced depressive model mice; type: in vivo
Method: The same operation as in the above Test Example 7 was conducted to prepare chronic mild stress-induced depressive model mice (n=8 to 12). During that time, the compound of the present invention dissolved in PBS or in a PBS solvent containing DMSO, etc. was orally administered once daily for three weeks and, after that, evaluation for learning and memorizing behaviors was conducted by means of a spontaneous alternation behavior test (Y-maze test). Thus, an animal was placed at the front end of any arm in the Y-maze and allowed to freely walk in the maze for ten minutes, the arms into which the animal entered were successively recorded and the entry numbers of the animal into each arm within a measuring time (total arm entries) and the combined entry numbers into continuously different three arms (alternating behavior numbers) were checked. The alternating behavior rate (%) was calculated by the following expression and the spontaneous alternating behavior was evaluated as an index of short-term memory. Incidentally, the test of significance was conducted by a one-way ANOVA, Tukey's Multiple Comparison Test. Alternating behavior rate (%)=(Alternating behavior numbers)/(Total arm entries−2)×100

[3] = system: disablement model rats with hemi-transection of spinal cord; assay: Improvement in motor function (BBB scale) in rats with hemi-transection of spinal cord; type: in vivo
Method: Female Wistar rats of seven weeks age (body weight: 120 to 140 g) were anesthetized with pentobarbital (40 mg/kg), thoracic vertebrae were detached to expose the thoracic cord and the left half thereof was cut at the position of the tenth thoracic cord using a sharp razor. After that, the muscle and the skin were satured to prepare disablement model rats with hemi-transection of spinal cord.
The compound of the present invention was dissolved in PBS or in a PBS solvent containing DMSO, etc. and orally administered once daily for 21 to 31 days.
With regard to the group administered with the compound of the present invention (n=3 to 6) and the control group (n=3 to 6), the improvement in motor function of the disablement model rats with hemi-transection of spinal cord was evaluated by a BBB scale (Basso D M, et al., J. Neurotrauma 12:1-21 (1995). Thus, evaluation of motor function was conducted for hind limbs of rats in such respects that whether the joint moves, whether body weight is applied onto the foot, whether walking is done, etc. wherein the movement of the hind limbs was divided into 21 points from no motility to normal state. Incidentally, the test for significance was conducted by a two-way ANOVA, Bonferroni Post test.

[4] = system: chronic mild stress-induced depressive model mice; assay: Elevated plus maze test in chronic mild stress-induced depressive model mice; type: in vivo; conditions: 1,500 μg/kg orally once daily for three weeks; control 25.37±4.13 seconds
Method: The same operation as in the above Test Example 7 was conducted to prepare chronic mild stress-induced depressive model mice (n=8 to 12). During that time, the compound of the present invention dissolved in PBS or in a PBS solvent containing DMSO, etc. was orally administered once daily for three weeks and, after that, the suppressive effect for anxiety symptom was evaluated by means of an elevated plus maze test. Thus, time when the mouse stayed in an open arm of the elevated plus maze and the frequency (motility amount) of coming in and out of the mouse for both open arm and closed arm were measured. When the anxiety symptom was stronger, the staying time in the open arm was shorter. At that time, it is confirmed that there is no difference in the frequencies for coming in and out the arm between the cases where the stress is and is not loaded. Incidentally, the test for significance was carried out by a one-way ANOVA, Tukey's Multiple Comparison Test.

[5] = system: male mice injected with corticosterone; assay: Tail suspension test in mice administered corticosterone; type: in vivo; conditions: after two weeks, control 141.15 seconds
Method: Corticosterone suspended in oil was hypodermically injected to male mice of seven weeks age (n=3 to 5) in a dose of […] every day for three weeks. At the same time, the compound of the present invention dissolved in PBS or in a PBS solvent containing DMSO, etc. was orally administered every day for three weeks. After one, two and three week(s), the suppressive effect for depressive symptom was evaluated by a tail suspension test in the same manner as in the above Test Example 7. Incidentally, the test for significance was conducted by a Student's t-test.

Structure (SMILES) | Rate of pMAPK-positive cells (%) ([1]; 62.5 μg/mL) | Rate of pMAPK-positive cells (%) ([1]; 125 μg/mL) | Rate of pMAPK-positive cells (%) ([1]; 250 μg/mL) | Rate of pMAPK-positive cells (%) ([1]; 500 μg/mL) | alternating behavior rate ([2]; 300 μg/kg orally once daily for three weeks, control 60.21±2.39%) | BBB score ([3]; 100 μg/kg orally once daily, after nine days, control 3.5) | staying time in an open arm (elevated plus maze) [4] | immobility time (tail suspension test) ([5]; 300 μg/kg orally every day) | alternating behavior rate ([2]; 1,500 μg/kg orally once daily for three weeks, control 61.76±2.01%) | BBB score ([3]; 500 μg/kg orally once daily, after fifteen days, control 9.8) | BBB score ([3]; 500 μg/kg orally once daily, after fourteen days, control 8.5) | BBB score ([3]; 500 μg/kg orally once daily, after seven days, control 1.8) | immobility time (tail suspension test) ([5]; 1,500 μg/kg orally every day)
CCCCCCC/C=C/C(=O)OCCN(C)C [Compound 1, (E)-2-(dimethylamino)ethyl dec-2-enoate] | 4% | 12% | 36% | 32% | – | – | – | – | – | – | – | – | –
CCCCCCC/C=C/C(=O)OCCN(CC)CC [Compound 6, (E)-2-(diethylamino)ethyl dec-2-enoate] | 31% | 51% | – | – | 75.40±3.22% | 8.3 | 53.57 ± 7.00 s | 60.37 s | – | – | – | – | –
CCCCCCC/C=C/C(=O)NCCN(C)C [Compound 36, (E)-N-2-(dimethylamino)ethyl dec-2-enamide] | 12% | 70% | 89% | 43% | – | – | – | 41.63 s | 71.52±2.50% | 12.3 | – | – | –
CCCCCCC/C=C/C(=O)NCCN(CC)CC [Compound 37, (E)-N-2-(diethylamino)ethyl dec-2-enamide] | 6% | 43% | 48% | 0% | – | – | – | – | – | – | – | – | –
CCCCCCC/C=C/C(=O)SCCN(C)C [Compound 55, (E)-S-2-(dimethylamino)ethyl dec-2-enethioate] | 20% | 46% | 41% | 10% | – | – | 47.24 ± 7.52 s | – | – | – | 12.3 | 5.3 | 86.71 s
